Test results as given in patent US9662303B2, “Composition and method for treating cancer” (PG-Pharma, LLC, priority 2006, dated 2017).
Where two headings read alike, the source gives them in different places.

Assays:
A549 = conditions: ref (9); cited from earlier work
Starfish embryos = conditions: ref (11); cited from earlier work
fibrosarcoma HT1080 = conditions: ref (10); cited from earlier work
[1] = Spectrophotometric absorbance binding experiments on pure tyrosine and phenylalanine; conditions: room temperature
From the text: Here is an outline of these experiments:
1. A plot of Absorbance (nm) with time (mins) of the interaction with tyrosine and DTS gives a normal distribution (Gaussian) with the highest optimum at room temperature.
2. As temperature is increased there is a lowering of the optimum on the graph until a straight line is created.
4. Phenylalanine, which is an aromatic amino acid, gives a straight line at room temperature with DTS, while DTS and tyrosine give a Gaussian distribution; the height of the curve is a function of the ratio of the DTS used.

[2] = target: mitogen-activated protein kinases phosphatase 1 (MKP-1) (Homo sapiens, UniProt P28562); conditions: in vitro; ref (12); cited from earlier work
Chain of mitogen-activated protein kinases phosphatase 1 (MKP-1) (P28562 whole entry, species assumed): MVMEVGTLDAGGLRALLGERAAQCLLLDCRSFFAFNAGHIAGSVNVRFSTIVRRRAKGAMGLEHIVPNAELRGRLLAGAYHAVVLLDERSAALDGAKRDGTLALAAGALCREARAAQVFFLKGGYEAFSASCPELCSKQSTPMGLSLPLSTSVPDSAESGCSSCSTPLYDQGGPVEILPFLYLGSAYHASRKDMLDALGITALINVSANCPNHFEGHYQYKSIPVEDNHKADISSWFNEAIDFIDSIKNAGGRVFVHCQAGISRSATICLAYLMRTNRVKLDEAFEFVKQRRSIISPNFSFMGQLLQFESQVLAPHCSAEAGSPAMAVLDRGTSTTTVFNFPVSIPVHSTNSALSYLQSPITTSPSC

ovarian OVCAR4 = conditions: ref (10); cited from earlier work
[3] = target: T1, Bovine Serum Albumin (BSA) (Bos taurus, UniProt P02769); conditions: personal communication; cited from earlier work
T1 sequence (P02769 25-607): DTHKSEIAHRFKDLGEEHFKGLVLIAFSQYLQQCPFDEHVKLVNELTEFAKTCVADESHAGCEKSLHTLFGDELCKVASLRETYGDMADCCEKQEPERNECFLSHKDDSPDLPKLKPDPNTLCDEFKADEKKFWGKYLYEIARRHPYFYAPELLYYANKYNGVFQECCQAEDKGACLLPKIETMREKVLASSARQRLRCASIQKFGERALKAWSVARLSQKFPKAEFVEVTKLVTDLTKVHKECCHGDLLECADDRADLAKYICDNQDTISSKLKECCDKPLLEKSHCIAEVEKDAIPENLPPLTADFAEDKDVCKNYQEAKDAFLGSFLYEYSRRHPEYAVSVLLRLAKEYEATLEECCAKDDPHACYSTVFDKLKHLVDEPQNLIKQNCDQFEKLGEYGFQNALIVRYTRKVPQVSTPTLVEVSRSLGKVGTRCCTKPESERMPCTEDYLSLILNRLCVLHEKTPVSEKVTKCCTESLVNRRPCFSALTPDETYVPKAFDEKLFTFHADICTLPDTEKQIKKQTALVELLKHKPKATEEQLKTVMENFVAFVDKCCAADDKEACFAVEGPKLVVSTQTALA

SH-SY5Y neuroblastoma = conditions: cited from earlier work
[4] = system: human SH-SY5Y neuroblatsoma cells; test: Anti-proliferation/cytotoxic activity of DTS and DTS-BSA complex on SH-SY5Y cells; assay type: cell-based; conditions: for Percentage anti-proliferation activity: SH-SY5Y
From the text: 3. […] 4. […] See Williams et al., (2004) West Indian Medical Journal 53 (4) pp. 208-219 for the preparation of cell culture medium and assessment of anti-proliferation/cytotoxic activity on the human SH-SY5Y neuroblatsoma cells (12); the previous reference is hereby incorporated by reference in its entirety. A summary of the results from an experiment involving the above synthesis method were as follows: […]

mice = test: Toxicity to mice; assay type: in vivo; conditions: up to 30 mg/kg body weight
Description: In addition, concentration of up to 30 mg/kg body weigh was not toxic to mice. DTS seems to activate the bone marrow at 10 mg/kg body weight since granulocytes differential count was increased by 50% (5).

ovarian A2780 = conditions: ref (10); cited from earlier work
breast M231 = conditions: ref (10); cited from earlier work
cadherin-5 = conditions: human SH-SY5YTRK-A neuroblastoma cells pre-treated with NgF; ref (11); cited from earlier work
thymus = conditions: old mice; refs (5;11); cited from earlier work
Peyer's patches = test: Effect on Peyer's patches; conditions: in vivo
From the text: The manipulation of various homing factors e.g. L-selectin-mAb LM1-3 and addressin-mAdCAM-1 and integrins such as alpha4beta7 as therapeutic targets on Peyer's patches dendritic cells is a rapidly expanding field in drug development against intestinal bowel diseases (IBD) e.g. colitis, colorectal carcinoma and Chrohn's disease (20;21). DTS caused an enlargement in Peyer's patches possible by an activation of cell proliferation. Thus, based on this finding we hereby proposed that the effect of DTS on the Peyer's patches should be elucidated with the hope of developing drugs against IBD.

IPC-melanoma = conditions: ref (9), cited from earlier work
[5] = system: human fibroblast (HOFA) cell line; conditions: over seven days; ref (9); cited from earlier work
[6] = target: T1, Bovine Serum Albumin (BSA); conditions: 500 ng/mL (0.5 μg/mL), pH 6.0; ref (11); cited from earlier work
[7] = system: Erythrocytes (red blood cells, RBCs); conditions: RBCs separated from WBCs, in buffer, concentrations higher than those effective on cancer cells; refs (11;32); cited from earlier work
[8] = system: non-small cell lung cancer H460; conditions: ref (10); cited from earlier work
[9] = system: human TE-671 sarcoma cell line; conditions: 0.56 μM, ref (9); cited from earlier work
adenocarcinoma HeLa = conditions: ref (10); cited from earlier work
Jurkat leukaemia = conditions: ref (10); cited from earlier work
Th-1 and Th-2 cytokines = conditions: Human Mixed Lymphocytes Responses, CD3 dependent activation, cited from earlier work
[10] = system: A637 primary bladder carcinoma; conditions: ref (9); cited from earlier work
MCF-7 mammary carcinoma = conditions: cited from earlier work
bone marrow = conditions: cited from earlier work
[11] = system: MAPKinase (erk 1 and erk 2); conditions: induced by basic fibroblast growth factor (bFGF); 1.0 μM; refs (7;11); cited from earlier work
immune system = test: Stimulation of the immune system in mice; assay type: in vivo; conditions: 11 mg/kg body weight
Description: The DTS-albumin formulation of the present invention can also be administered to a patient with a formulation dosage that is predetermined based upon data specific to that patient. For example, weight, metabolic factors, genetic factors, etc. can contribute to varying predetermined dosage amounts that are used to prescribe the specific predetermined dosage to the patient. Preferably the formulation dosage is between about 0.023 mg/kg and about 2.3 mg/kg body weight. […] The DTS-BSA complex was active at 0.5 ng/mL in vitro dose, a ratio of about 480. Thus, 11 divided by 480 is about 0.023 mg/Kg body weight (minimum). Similarly, the maximum is about 2.3 mg/Kg body weight. If we assumed that the maximum weigh of a human to be treated with the ATS-albumin complex Is 70 Kg, then the upper limit would be […]=1.61 mg/70 kg body weight.

For `c1ccc(CSSSCc2ccccc2)cc1` [DTS, dibenzyl trisulphide], the IC50 (A549) is listed as 15.8 µM, the “effect on protein biosynthesis” value (Starfish embryos) is listed as “did not have any effect” and the IC50 (fibrosarcoma HT1080) is listed as 1900 nM. For the same compound, the “binding to aromatic amino acids (absorbance)” value [1] was “binds only to tyrosine”, the “binding of MKP-1 to its substrate OMFP” value [2] was “enhance” and the IC50 (ovarian OVCAR4) was 1400 nM. For the same compound, the “binding of glucose to BSA” value [3] was “inhibit”, the “enhancement of cytotoxic action by complexing DTS to Bovine Serum Albumin” value (SH-SY5Y neuroblastoma; SH-SY5Y in vitro, refs (11;12)) was 70 fold and the IC50 (SH-SY5Y neuroblastoma; SH-SY5Y neuroblastoma, ref (9)) was 430 nM. The “effective in vitro dose” value ([4]; DTS alone, in vitro, cell system not stated) was 240 ng/mL, the Percentage anti-proliferation activity ([4]; DTS at 39 ng/mL (No BSA)) was 1.68% and the Percentage anti-proliferation activity ([4]; DTS at 78 ng/mL (No BSA)) was 38.22%. For the same compound, the Percentage anti-proliferation activity ([4]; DTS at 1.25 μg/mL (No BSA)) was 93.00%, the toxicity to mice (mice) was “not toxic” and the IC50 (ovarian A2780) was 400 nM. For the same compound, the IC50 (breast M231) was 2400 nM, the “expression of cadherin-5” value (cadherin-5) was “up-regulate” and the thymic weight (thymus) was “increase”. The “Peyer's patches size” value (Peyer's patches) was “enlargement”, the “nuclear morphology (mitotic catastrophe)” value (IPC-melanoma; IPC-melanoma cells exposed to 1.0 μM) was “nuclear fragmentation” and the IC50 (IPC-melanoma; IPC-melanoma) was 2900 nM. The “toxicity to human fibroblast (HOFA) cell line” value [5] was “not to be toxic”, the “protection of BSA from denaturation” value [6] was 50.83% and the effect on erythrocytes [7] was “cell-cell attraction with morphological changes without lysis”. The IC50 [8] was 5.1 µM, the anti-proliferation/cytotoxic activity [9] was 44.67% and the IC50 (adenocarcinoma HeLa) was 2500 nM. For the same compound, the IC50 (Jurkat leukaemia) was 350 nM, the “Th-2 cytokines such as IL-4” value (Th-1 and Th-2 cytokines) was “up-regulated” and the Th-1 cytokines (Th-1 and Th-2 cytokines; ref (11)) was “down regulates”. The IC50 [10] was 18.8 µM, the IC50 (MCF-7 mammary carcinoma; ref (9)) was 2.24 µM and the IC50 (MCF-7 mammary carcinoma; ref (10)) was 6.6 µM. For the same compound, the “increase of granulocytes differential count” value (bone marrow; 10 mg/kg body weight, ref (5)) was 50%, the “production of granulocytes and erythrocytes” value (bone marrow; refs (5;11)) was “increased” and the “hyperphosphorylation of MAPKinase (erk 1 and erk 2) signalling” value [11] was 30%. For the same compound, the “effect on the immune system” value (immune system) was “stimulated the immune system”.
